Data as given in ChEMBL document CHEMBL5154675, “Design, Synthesis, and Biological Evaluation of 1-(Indolizin-3-yl)ethan-1-ones as CBP Bromodomain Inhibitors for the Treatment of Prostate Cancer” (J Med Chem, 2022).

Assays:
[1] = Cmax in Sprague-Dawley rat at 25 mg/kg, po measured up to 24 hrs; format: ADME, organism-based; design: dose 25 mg/kg, time < 24 hrs, route po; conditions: in vivo
[2] = Half life in Sprague-Dawley rat at 25 mg/kg, po measured up to 24 hrs; format: ADME, organism-based; conditions: in vivo
LNCaP = experiment: Antiproliferative activity against human LNCaP cells assessed as cell growth inhibition by Celltiter-Glo assay; format: functional, cell-based
[3] = target: T1, Bromodomain-containing protein 2 (Homo sapiens, UniProt P25440); conditions: dose 200.0 µM, time 30.0 min
Target sequence in this assay (P25440 whole entry, looked up): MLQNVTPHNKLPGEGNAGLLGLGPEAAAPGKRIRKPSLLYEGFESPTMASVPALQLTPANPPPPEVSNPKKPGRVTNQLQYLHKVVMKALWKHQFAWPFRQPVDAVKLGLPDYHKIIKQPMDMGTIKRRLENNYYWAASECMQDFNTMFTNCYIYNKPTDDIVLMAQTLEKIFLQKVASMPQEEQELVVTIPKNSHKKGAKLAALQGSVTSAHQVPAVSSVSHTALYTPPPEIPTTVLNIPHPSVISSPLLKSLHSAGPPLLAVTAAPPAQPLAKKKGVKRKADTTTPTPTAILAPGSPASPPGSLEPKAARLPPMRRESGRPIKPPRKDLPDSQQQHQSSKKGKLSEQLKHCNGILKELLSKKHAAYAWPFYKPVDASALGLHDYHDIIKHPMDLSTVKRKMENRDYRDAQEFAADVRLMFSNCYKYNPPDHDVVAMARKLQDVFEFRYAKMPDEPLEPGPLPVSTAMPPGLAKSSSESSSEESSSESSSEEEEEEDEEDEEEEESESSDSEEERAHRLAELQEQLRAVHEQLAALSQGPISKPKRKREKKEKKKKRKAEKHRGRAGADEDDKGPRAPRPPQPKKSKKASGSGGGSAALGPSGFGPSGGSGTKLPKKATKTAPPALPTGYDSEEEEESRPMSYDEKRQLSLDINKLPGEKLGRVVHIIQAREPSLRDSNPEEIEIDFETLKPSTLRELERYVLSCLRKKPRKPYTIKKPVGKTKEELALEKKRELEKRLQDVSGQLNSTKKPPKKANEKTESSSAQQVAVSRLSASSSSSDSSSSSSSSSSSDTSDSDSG

CWR22R = experiment: Antiproliferative activity against human 22Rv1 cells assessed as cell growth inhibition by Celltiter-Glo assay; format: functional, cell-based
[4] = target: PH-interacting protein (Homo sapiens) (UniProt Q8WWQ0); conditions: dose 200.0 µM, time 30.0 min
[5] = target: T2, Bromodomain testis-specific protein (Homo sapiens, UniProt Q58F21); conditions: dose 200.0 µM, time 30.0 min
[6] = Cmax in Sprague-Dawley rat at 5 mg/kg, iv administered as single dose measured up to 24 hrs; format: ADME, organism-based; design: time < 24 hrs, dose 5 mg/kg, route iv; conditions: in vivo
CREB-binding protein [7] = target: T3, CREB-binding protein (Homo sapiens, UniProt Q92793); experiment: Inhibition of His6-tagged human CBP bromodomain (1081 to 1197 residues) expressed in Escherichia coli BL21 (DE3) incubated for 30 mins by HTRF assay
[8] = target: T2, Bromodomain testis-specific protein; conditions: dose 200.0 µM, time 30.0 min; remark: listed apart in the source
[9] = target: T4, Bromodomain-containing protein 3 (Homo sapiens, UniProt Q15059); conditions: dose 200.0 µM, time 30.0 min
[10] = Half life in Sprague-Dawley rat at 5 mg/kg, iv administered as single dose measured up to 24 hrs; format: ADME, organism-based; conditions: Sprague-Dawley, in vivo
[11] = target: T1, Bromodomain-containing protein 2; conditions: dose 200.0 µM, time 30.0 min; remark: listed apart in the source
Target sequence in this assay (P25440 whole entry, looked up): as above

[12] = target: T5, Bromodomain-containing protein 9 (Homo sapiens) (UniProt Q9H8M2); conditions: dose 200.0 µM, time 30.0 min
T5 sequence (whole entry): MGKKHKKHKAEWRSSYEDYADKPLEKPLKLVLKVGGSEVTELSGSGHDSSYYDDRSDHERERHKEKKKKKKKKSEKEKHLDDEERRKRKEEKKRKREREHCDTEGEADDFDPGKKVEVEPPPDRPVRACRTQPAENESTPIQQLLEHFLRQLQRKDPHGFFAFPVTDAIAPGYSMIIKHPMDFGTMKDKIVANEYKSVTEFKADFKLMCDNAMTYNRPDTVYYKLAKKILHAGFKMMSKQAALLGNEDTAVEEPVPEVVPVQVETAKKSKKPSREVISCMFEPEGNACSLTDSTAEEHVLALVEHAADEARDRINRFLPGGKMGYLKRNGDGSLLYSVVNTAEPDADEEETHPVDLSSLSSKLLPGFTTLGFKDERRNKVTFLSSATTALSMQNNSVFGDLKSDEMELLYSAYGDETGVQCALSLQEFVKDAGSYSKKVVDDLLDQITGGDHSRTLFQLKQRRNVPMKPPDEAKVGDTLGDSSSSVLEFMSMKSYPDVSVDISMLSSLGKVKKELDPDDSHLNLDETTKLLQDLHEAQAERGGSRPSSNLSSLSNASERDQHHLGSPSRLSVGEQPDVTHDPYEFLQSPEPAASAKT

[13] = AUC (0 to infinity) in Sprague-Dawley rat at 5 mg/kg, iv administered as single dose measured up to 24 hrs; format: ADME, organism-based; design: time < 24 hrs, dose 5 mg/kg, route iv; conditions: Sprague-Dawley, in vivo
CREB-binding protein [14] = target: T3, CREB-binding protein; conditions: dose 200.0 µM, time 30.0 min
[15] = target: SWI/SNF-related matrix-associated actin-dependent regulator of chromatin subfamily A member 2 (Homo sapiens) (UniProt P51531); conditions: dose 200.0 µM, time 30.0 min
[16] = target: Chromatin remodeling regulator CECR2 (Homo sapiens) (UniProt Q9BXF3); conditions: dose 200.0 µM, time 30.0 min
LNCaP C4-2B = experiment: Antiproliferative activity against human LNCaP C4-2B cells assessed as inhibition of cell growth by Celltiter-Glo assay; format: functional, cell-based
[17] = Clearance in Sprague-Dawley rat at 5 mg/kg, iv administered as single dose measured up to 24 hrs; format: ADME, organism-based; conditions: Sprague-Dawley, in vivo
[18] = target: T6, Bromodomain-containing protein 4 (Homo sapiens, UniProt O60885); conditions: dose 200.0 µM, time 30.0 min
[19] = target: T4, Bromodomain-containing protein 3; conditions: dose 200.0 µM, time 30.0 min; remark: listed apart in the source
[20] = target: T6, Bromodomain-containing protein 4; conditions: dose 200.0 µM, time 30.0 min; remark: listed apart in the source
[21] = target: Bromodomain adjacent to zinc finger domain protein 2B (Homo sapiens) (UniProt Q9UIF8); conditions: dose 200.0 µM, time 30.0 min
[22] = Oral bioavailability in Sprague-Dawley rat at 25 mg/kg measured up to 24 hrs; format: ADME, organism-based; conditions: in vivo
[23] = target: Histone acetyltransferase KAT2B (Homo sapiens) (UniProt Q92831); conditions: dose 200.0 µM, time 30.0 min
[24] = target: Histone acetyltransferase p300 (Homo sapiens) (UniProt Q09472); conditions: dose 200.0 µM, time 30.0 min
[25] = AUC (0 to infinity) in Sprague-Dawley rat at 25 mg/kg, po measured up to 24 hrs; format: ADME, organism-based; design: time < 24 hrs, dose 25 mg/kg, route po; conditions: in vivo
[26] = target: T1, Bromodomain-containing protein 2; experiment: Binding affinity to His6-tagged human BRD2 bromodomain-1 (77 to 194 residues) expressed in Escherichia coli BL21 (DE3) assessed as dissociation constant by ITC analysis
Target sequence in this assay (P25440 whole entry): as the sequence (P25440 whole entry, looked up) above

[27] = target: T2, Bromodomain testis-specific protein; experiment: Binding affinity to His6-tagged human BRDT bromodomain-1 (21 to 137 residues) expressed in Escherichia coli BL21 (DE3) assessed as dissociation constant by ITC analysis
[28] = target: T6, Bromodomain-containing protein 4; experiment: Binding affinity to His6-tagged human BRD4 bromodomain-1 (44 to 168 residues) expressed in Escherichia coli BL21 (DE3) assessed as dissociation constant by ITC analysis
[29] = target: T7, Bromodomain-containing protein 9 (Homo sapiens, UniProt Q9H8M2); experiment: Binding affinity to His6-tagged human BRD9 bromodomain (14 to 134 residues) expressed in Escherichia coli BL21 (DE3) assessed as dissociation constant by ITC analysis
T7 sequence (Q9H8M2 whole entry): T5 sequence (whole entry)

T4 sequence (Q15059 2-726 limits assumed): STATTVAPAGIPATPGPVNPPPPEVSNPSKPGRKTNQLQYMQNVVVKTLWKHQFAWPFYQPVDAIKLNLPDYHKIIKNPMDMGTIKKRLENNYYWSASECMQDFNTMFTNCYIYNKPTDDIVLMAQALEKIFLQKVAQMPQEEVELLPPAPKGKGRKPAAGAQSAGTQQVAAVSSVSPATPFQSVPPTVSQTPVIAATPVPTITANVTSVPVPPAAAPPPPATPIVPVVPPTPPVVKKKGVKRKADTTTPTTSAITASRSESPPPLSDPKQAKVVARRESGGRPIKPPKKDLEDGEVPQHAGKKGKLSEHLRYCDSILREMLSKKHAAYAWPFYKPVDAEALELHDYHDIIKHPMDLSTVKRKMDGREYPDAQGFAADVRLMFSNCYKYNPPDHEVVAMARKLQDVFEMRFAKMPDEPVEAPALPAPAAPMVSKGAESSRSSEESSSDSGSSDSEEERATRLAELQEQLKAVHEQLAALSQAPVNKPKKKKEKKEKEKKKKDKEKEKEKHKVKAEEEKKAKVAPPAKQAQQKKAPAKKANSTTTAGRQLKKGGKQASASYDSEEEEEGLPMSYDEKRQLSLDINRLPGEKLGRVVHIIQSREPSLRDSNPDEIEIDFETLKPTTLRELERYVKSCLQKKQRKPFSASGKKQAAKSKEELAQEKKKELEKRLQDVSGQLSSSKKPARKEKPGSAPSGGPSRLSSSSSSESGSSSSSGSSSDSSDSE
Chromatin remodeling regulator CECR2 (Homo sapiens), sequence (Q9BXF3 whole entry, looked up): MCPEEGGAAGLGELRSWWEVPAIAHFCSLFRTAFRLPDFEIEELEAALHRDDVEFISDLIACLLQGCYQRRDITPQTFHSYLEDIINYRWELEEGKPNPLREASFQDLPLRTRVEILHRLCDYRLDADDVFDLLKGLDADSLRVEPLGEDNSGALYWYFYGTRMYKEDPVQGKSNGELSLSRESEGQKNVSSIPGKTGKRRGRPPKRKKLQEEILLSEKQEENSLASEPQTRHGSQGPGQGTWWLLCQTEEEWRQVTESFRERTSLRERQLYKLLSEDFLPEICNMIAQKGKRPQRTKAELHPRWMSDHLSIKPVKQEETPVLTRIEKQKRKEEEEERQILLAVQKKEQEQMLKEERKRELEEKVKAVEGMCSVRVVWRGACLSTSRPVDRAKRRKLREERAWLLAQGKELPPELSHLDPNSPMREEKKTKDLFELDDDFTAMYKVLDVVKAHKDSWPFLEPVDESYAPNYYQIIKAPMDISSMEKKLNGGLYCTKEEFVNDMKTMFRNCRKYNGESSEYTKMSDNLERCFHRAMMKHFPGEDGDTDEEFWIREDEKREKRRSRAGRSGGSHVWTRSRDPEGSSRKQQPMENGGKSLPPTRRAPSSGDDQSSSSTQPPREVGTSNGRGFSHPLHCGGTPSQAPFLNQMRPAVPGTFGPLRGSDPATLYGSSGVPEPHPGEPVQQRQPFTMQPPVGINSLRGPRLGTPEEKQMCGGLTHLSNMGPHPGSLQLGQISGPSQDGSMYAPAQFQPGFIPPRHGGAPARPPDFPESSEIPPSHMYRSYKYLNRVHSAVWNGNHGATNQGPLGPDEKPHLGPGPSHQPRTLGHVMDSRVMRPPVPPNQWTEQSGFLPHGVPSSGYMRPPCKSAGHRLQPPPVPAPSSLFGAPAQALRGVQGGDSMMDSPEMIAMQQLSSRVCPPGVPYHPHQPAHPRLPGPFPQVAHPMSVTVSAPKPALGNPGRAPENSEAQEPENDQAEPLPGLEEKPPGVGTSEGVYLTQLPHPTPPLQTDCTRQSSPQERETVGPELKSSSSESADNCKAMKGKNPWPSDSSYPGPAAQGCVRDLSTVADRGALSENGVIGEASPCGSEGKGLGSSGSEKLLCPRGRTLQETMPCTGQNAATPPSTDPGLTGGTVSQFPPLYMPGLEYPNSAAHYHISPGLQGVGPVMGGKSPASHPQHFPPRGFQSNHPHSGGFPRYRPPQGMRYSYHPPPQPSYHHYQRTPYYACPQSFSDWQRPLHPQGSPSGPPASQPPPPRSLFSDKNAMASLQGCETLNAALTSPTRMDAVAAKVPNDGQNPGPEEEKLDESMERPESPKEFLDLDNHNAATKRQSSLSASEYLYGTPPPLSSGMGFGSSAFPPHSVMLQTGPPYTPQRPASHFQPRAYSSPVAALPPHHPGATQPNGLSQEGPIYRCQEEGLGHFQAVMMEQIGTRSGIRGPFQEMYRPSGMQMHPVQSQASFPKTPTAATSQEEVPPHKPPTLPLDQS
Histone acetyltransferase KAT2B (Homo sapiens), sequence (Q92831 whole entry, looked up): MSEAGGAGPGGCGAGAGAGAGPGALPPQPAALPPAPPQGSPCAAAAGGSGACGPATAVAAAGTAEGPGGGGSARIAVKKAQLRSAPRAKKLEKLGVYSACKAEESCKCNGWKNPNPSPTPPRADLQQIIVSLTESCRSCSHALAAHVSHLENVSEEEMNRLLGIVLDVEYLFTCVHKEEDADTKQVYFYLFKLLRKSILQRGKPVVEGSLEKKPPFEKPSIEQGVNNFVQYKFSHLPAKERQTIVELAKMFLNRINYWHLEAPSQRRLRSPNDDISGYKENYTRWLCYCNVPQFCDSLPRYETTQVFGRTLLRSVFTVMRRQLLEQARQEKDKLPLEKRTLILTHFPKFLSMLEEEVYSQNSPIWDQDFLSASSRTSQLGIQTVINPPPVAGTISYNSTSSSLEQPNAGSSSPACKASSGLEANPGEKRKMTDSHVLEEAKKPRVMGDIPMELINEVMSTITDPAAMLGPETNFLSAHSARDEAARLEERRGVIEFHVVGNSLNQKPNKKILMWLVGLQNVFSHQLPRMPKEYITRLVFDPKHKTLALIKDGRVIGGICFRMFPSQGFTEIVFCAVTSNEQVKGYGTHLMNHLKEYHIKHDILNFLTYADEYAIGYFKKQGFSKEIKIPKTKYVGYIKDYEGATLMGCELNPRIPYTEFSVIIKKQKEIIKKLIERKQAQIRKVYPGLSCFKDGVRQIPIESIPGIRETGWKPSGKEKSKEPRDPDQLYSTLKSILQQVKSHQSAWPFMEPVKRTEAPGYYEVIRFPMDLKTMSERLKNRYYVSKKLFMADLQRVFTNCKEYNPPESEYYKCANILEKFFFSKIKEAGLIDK

IC50 (LNCaP)	ΔTm [3]	ΔTm [4]	ΔTm [5]	ΔTm [8]	ΔTm [9]	ΔTm [11]	ΔTm [12]	ΔTm (CREB-binding protein [14])	ΔTm [15]	ΔTm [16]	IC50 (LNCaP C4-2B)	ΔTm [18]	ΔTm [19]	ΔTm [20]	ΔTm [21]	ΔTm [23]	ΔTm [24]	Compound	IC50 (CWR22R)	also measured
0.44 µM	-0.8 °C	-0.3 °C	1.5 °C	0 °C	0.5 °C	1.3 °C	5.3 °C	14 °C	-0.3 °C	-0.2 °C	2.97 µM	0 °C	0 °C	-0.6 °C	-0.2 °C	-0.3 °C	14.5 °C	CC(=O)c1cc(C(=O)Nc2cc(C(C)O)cc(-c3cnn(C4CC4)c3)c2F)c2cc(N)ccn12 (stereo unspecified)	2.93 µM	Cmax [1]: 46.8 ng/mL; half-life [2]: 1.97 h; Cmax [6]: 2680 ng/mL; IC50 (CREB-binding protein [7]): 0.00148 µM; half-life [10]: 1.32 h; AUC(0-inf) [13]: 796 ng·h/mL; clearance [17]: 107 mL/min/kg; bioavailability [22]: 0.68%; AUC(0-inf) [25]: 29.4 ng·h/mL
0.06 µM	3.8 °C	0 °C	2.5 °C	0.5 °C	5.5 °C	2.3 °C	4.3 °C	17.5 °C	0 °C	0 °C	1.65 µM	1.3 °C	2 °C	6.3 °C	-0.5 °C	-0.5 °C	17.5 °C	CO[C@H]1CC[C@H](n2c([C@@H]3CCCC(=O)N3c3ccc(F)c(F)c3)nc3cc(-c4c(C)noc4C)ccc32)CC1 [INOBRODIB]	0.42 µM	Kd [26]: 0.39 µM; Kd [27]: 1.12 µM; Kd [28]: 0.36 µM; Kd [29]: 2.61 µM
